Earlier results in patent US20200230099A1, “Stable Pharmaceutical Composition Comprising Zanamivir” (Dae Hwa Pharma. Co., Ltd., priority 2017, published 2020).
Read-outs that look alike come from different tables or passages of the source.

Settings: in vivo

In the case of `CC(=O)N[C@H]1[C@H]([C@H](O)[C@H](O)CO)OC(C(=O)O)=C[C@@H]1N=C(N)N` [zanamivir, 5-(acetylamino)-4-[(aminoiminomethyl)amino]-2,6-anhydro-3,4,5-trideoxy-D-glycero-D-galacto-non-2-enonic acid], the bioavailability is given as “about 2%” and the bioavailability (inhaled or intranasal) is given as 4-17%.
